Patent US7393637B2, “Methods for detecting cancer and monitoring cancer progression” (University of Manitoba, priority 2003, dated 2008)

Key:
Type in all cases: cell-based, human
U87 cells = test: Antisense experiment: hypoxia-induced cell death in U87 cells (acridine orange staining); conditions: hypoxia 72 hours
Experimental: U251 and U87 cells were plated on 100 mm plates and grown to approximately 80% confluence, then incubated in hypoxic conditions for a time course of 0, 24, 48, 72 and 96 hours. Following incubation under hypoxia, the cells were trypsinized from the plates and centrifuged to collect a cell pellet. Cells were resuspended in 100 μl of media and 4 μl of acridine orange (100 μg/ml) and ethidium bromide (100 μg/ml) were added. A 10 μl aliquot was removed, placed on a microscope slide and a coverslip was applied. Using a fluorescein filter, the percentage of dead cells was determined by counting the number of DNA condensation nuclei. At least 200 cells were counted per sample as previously described (5).
Antisense oligonucleotide (5′-[…]-3′ (SEQ ID NO:13)) (Sigma Genesys, Oakville, ON) and sense oligonucleotide (5′-[…]-3′ (SEQ ID NO:14)) were complimentary to bases −1 to +19 of the human Bnip3 gene. Random sequence oligonucleotide (5′-GCAGTCAGCGACGTCGMGC-3′ (SEQ ID NO:15)) contained the same bases in a scrambled sequence. Oligonucleotides were phosphorothioate-modified to prevent degradation. […] Cell death was determined via acridine orange staining or cells were lysed and protein extracts were analyzed for BNIP3 expression as described above.

BNIP3 = test: Antisense experiment: BNIP3 expression in U87 cells under hypoxia (Western blot); conditions: hypoxia 72 hrs
Experimental: U251 cells were lysed for total protein or nuclear proteins as previously published (5). The lysates ([…]) were separated by SDS-PAGE and transferred to nitrocellulose membranes. Membranes were blocked in 5% skim milk and western blotted with monoclonal antibodies against BNIP3 (1:1000) (5), pro-caspase 8 antibodies (1:1000, Upstate Biotech.), HDAC1 antibodies (1:1000, Upstate Biotech),) or β-actin (1:50, Sigma). The western blots were visualized with chemiluminescence (NEN-Dupont).
Antisense oligonucleotide (5′-[…]-3′ (SEQ ID NO:13)) (Sigma Genesys, Oakville, ON) and sense oligonucleotide (5′-[…]-3′ (SEQ ID NO:14)) were complimentary to bases −1 to +19 of the human Bnip3 gene. Random sequence oligonucleotide (5′-GCAGTCAGCGACGTCGMGC-3′ (SEQ ID NO:15)) contained the same bases in a scrambled sequence. Oligonucleotides were phosphorothioate-modified to prevent degradation. Oligonucleotides were diluted in Opti-MEM (Gibco BRL), mixed with oligofectamine (Invitrogen) and incubated with U87 cells for 4 hours then hypoxic media was added and cells were further incubated under hypoxia for 72 hours. Cell death was determined via acridine orange staining or cells were lysed and protein extracts were analyzed for BNIP3 expression as described above.

[1] = tested on: glioblastoma cell lines U87 and U251; test: Cell death after transfection of glioblastoma cell lines (chromatin condensation); conditions: U87 and U251 cells transfected, normoxia
Experimental: (§1) Human glioblastoma cell lines U251 and U87 (obtained from Dr. V. W. Yong, University of Calgary and Dr. C. Hao, University of Alberta, respectively) were cultured in Dulbecco's modified essential medium (DMEM), supplemented with 10% fetal bovine serum, 2 mM L-glutamine, 1 mM MEM sodium pyruvate, 0.3% glucose and 100 units/mI penicillin/streptomycin. The cell lines were grown in a humidified incubator in the presence of 5% CO2 at 37° C. Cells were maintained under hypoxic conditions (less than 1% oxygen) at 37° C. within a hypoxic chamber (Forma Scientific) filled with 5% CO2 balanced with N2. Transfection experiments were carried out with the U87 and U251 cell lines. The cells were plated 48 hours prior to transfection to achieve approximately 40% confluence. The U87 cell line was transfected using Geneporter™ transfection reagent (GTS) and the U251 cell line using Effectene™ transfection reagent (Qiagen) as per the manufacturer's instructions.
After transfection of U87 and U251 cell lines with 2 μg of pCDNA3, pCDNA3-BNIP3, pCDNA3-BNIP3ΔTM, or pCDNA3-356delA BNIP3, the cells were incubated for 24 and 48 hours, then trypsinized and centrifuged and then resuspended in 2 ml of media. A 200 μl aliquot was placed in a ThermoShandon cytospin at 1000 RPM for 5 minutes with medium-low acceleration. The slides obtained from the cytospin were immediately fixed with 3.7% formaldelyde in 1×PBS at RT for one hour. Following three washes with 1' PBS (0.1% NP40), slides were incubated with primary BNIP3 antibody (1:700 dilution in […], 1×PBS, 0.1% NP40) for 1 hour at RT. The slides were then washed three times in PBS (0.1% NP40) and incubated with goat anti-rabbit fluorescein isothiocyanate (FITC)-conjugated secondary antibody (Sigma) for 1 hour. […] 200 or more cells were counted per sample to assess DNA condensation. Fluorescence was visualized and captured using an Olympus BX51 fluorescent microscope with a Photometrics Cool Snap CF camera and an Olympus IX70 inverted confocal laser microscope using Fluoview 2.0 software.

U251 cells [2] = test: Determination of mitochondrial membrane potential (TMRM staining) in transfected U251 cells; conditions: U251 cells co-transfected with GFP
Experimental: U251 cells were grown in chamber slides and were co-transfected with pEGFP N1 (Clontech) and pCDNA3, pCDNA3-BNIP3, pCDNA3-BNIP3ΔTM, and pCDNA3-356delA BNIP3 using Geneporter™ transfection reagent (GTS) as per the manufacturer's instructions. After 16 h of incubation, the slides were washed twice with 1×Hepes-buffered saline solution (HBSS) and tetramethylrohdamine (TMRM; Molecular Probes) was added to the slides at […] final concentration and incubated in the dark at RT for 10 min. The slides were then viewed on an Olympus IX70 inverted confocal laser microscope using Fluoview 2.0 software.

U251 cells [3] = test: Hypoxia-induced cell death in transfected U251 cells (β-galactosidase viability assay)
Experimental: as §1
U87 and U251 cells were co-transfected in 100 mm culture plates with 2 μg of pcDNA3, pcDNA3-BNIP3, pcDNA3-BNIP3ΔTM, pcDNA3-356delA BNIP3 plasmid DNA and 0.5 μg of β-galactosidase reporter plasmid DNA. […] The percentage of dead cells was calculated by assessing the number of rounded, condensed, blue-staining cells in the total population of flat, blue-staining cells. At least 200 cells were counted for each experiment.

| Molecule | hypoxia-induced cell death (U87 cells) | BNIP3 expression (BNIP3) | induction of cell death [1] | TMRM staining (mitochondrial membrane potential, Δψm) (U251 cells [2]) | cell death (U251 cells [3]; U251 cells transfected with cDNA, hypoxic conditions 72 hours, vector alone 40%, normoxia 10%) | reduction of cell death versus vector alone (U251 cells [3]; U251 cells, hypoxic conditions) |
| --- | --- | --- | --- | --- | --- | --- |
| 5′-GCGCTCCGTTCTGCGACATG-3′ (SEQ ID NO:13) (listed as DNA, chemistry not given here) [antisense oligonucleotides against BNIP3, antisense oligonucleotide to bases −1 to +19 of the human Bnip3 gene] | inhibited hypoxia-induced cell death | effectively blocks BNIP3 expression | – | – | – | – |
| 235—236insA BNIP3: truncated BNIP3, frame shift in the PEST domain by insertion of A at nucleotide 236 (SEQ ID NO:5, protein SEQ ID NO:6) | – | – | failed to induce cell death | – | – | – |
| wt BNIP3: wild-type Bcl-2 Nineteen Kilodalton Interacting Protein 3 (SEQ ID NO:2), expressed from transfected cDNA | – | – | inducing cell death | TMRM staining decreased | – | – |
| 356delA BNIP3: truncated BNIP3, frame shift in the CD domain by deletion of A at nucleotide 356 (SEQ ID NO:3, protein SEQ ID NO:4) (protein, listed as Homo sapiens) MSQNGAPGMQEESLQGSWVELHFSNNGNGGSVPASVSIYNGDMEKILLDAQHESGRSSSKSSHCDSPPRSQTPQDTNRASETDTHSIGEKNSSQSEEDDIERRKEVESILKKNSDWIWVGQVGRKIFPPRSSSLNTRSARPPSA | – | – | fails to induce cell death | failed to change TMRM fluorescence | 20% | 50% |
